Assay results: the NIST ThermoML archive (doi:10.1021/je700755t)
Numbers after ± are expanded uncertainties.

Legend:
[1] = 101 kPa, Liquid; for viscosity: Capillary tube (Ostwald / Ubbelohde) method
[2] = xn = mol fraction of the nth substance listed; conditions: 101 kPa, Liquid, x2 = 0; for viscosity: Capillary tube (Ostwald / Ubbelohde) method

Structure (SMILES)	mass density ([1]; 303.15 K) [kg/m3]	viscosity ([1]; 303.15 K) [mPa·s]	mass density ([1]; 313.15 K) [kg/m3]	viscosity ([1]; 313.15 K) [mPa·s]	mass density ([1]; 323.15 K) [kg/m3]	viscosity ([1]; 323.15 K) [mPa·s]	mass density ([1]; 333.15 K) [kg/m3]	viscosity ([1]; 333.15 K) [mPa·s]	mass density ([1]; 343.15 K) [kg/m3]	viscosity ([1]; 343.15 K) [mPa·s]	mass density ([1]; 353.15 K) [kg/m3]	viscosity ([1]; 353.15 K) [mPa·s]	viscosity ([2]; 303.15 K) [mPa·s]	mass density ([2]; 303.15 K) [kg/m3]	viscosity ([2]; 313.15 K) [mPa·s]	mass density ([2]; 313.15 K) [kg/m3]	viscosity ([2]; 323.15 K) [mPa·s]	mass density ([2]; 323.15 K) [kg/m3]	viscosity ([2]; 333.15 K) [mPa·s]	mass density ([2]; 333.15 K) [kg/m3]	also measured
CC(=O)O [acetic acid]	1038.66 ± 0.42	1.059 ± 0.009	1027.37 ± 0.39	0.92 ± 0.009	1016.08 ± 0.35	0.804 ± 0.008	1005.04 ± 0.32	0.709 ± 0.008	993.69 ± 0.32	0.632 ± 0.007	982.95 ± 0.35	0.57 ± 0.007	–	–	–	–	–	–	–	–	–
CN(C)C=O [dimethylformamide]	939.45 ± 0.34	0.76 ± 0.008	929.86 ± 0.36	0.675 ± 0.007	920.92 ± 0.38	0.608 ± 0.007	910.64 ± 0.41	0.552 ± 0.007	901.72 ± 0.43	0.502 ± 0.007	891.44 ± 0.45	0.46 ± 0.007	–	–	–	–	–	–	–	–	–
CN(C)C=O [dimethylformamide] + CC(=O)O	–	–	–	–	–	–	–	–	–	–	–	–	0.76 ± 0.008	939.45 ± 0.45	0.675 ± 0.007	929.86 ± 0.48	0.608 ± 0.007	920.92 ± 0.5	0.552 ± 0.007	910.64 ± 0.54	viscosity ([2]; 343.15 K): 0.502 ± 0.007 mPa·s; mass density ([2]; 343.15 K): 901.72 ± 0.56 kg/m3; viscosity ([2]; 353.15 K): 0.46 ± 0.007 mPa·s; mass density ([2]; 353.15 K): 891.44 ± 0.6 kg/m3
CN(C)C=O [dimethylformamide] + O=CO	–	–	–	–	–	–	–	–	–	–	–	–	0.76 ± 0.008	939.45 ± 0.34	0.675 ± 0.007	929.86 ± 0.36	0.608 ± 0.007	920.92 ± 0.38	0.552 ± 0.007	910.64 ± 0.41	viscosity ([2]; 343.15 K): 0.502 ± 0.007 mPa·s; mass density ([2]; 343.15 K): 901.72 ± 0.43 kg/m3; viscosity ([2]; 353.15 K): 0.46 ± 0.007 mPa·s; mass density ([2]; 353.15 K): 891.44 ± 0.45 kg/m3
O=CO [formic acid]	1205.07 ± 0.96	1.437 ± 0.013	1192.81 ± 0.92	1.205 ± 0.012	1180.63 ± 0.89	1.022 ± 0.01	1167.44 ± 0.85	0.879 ± 0.009	1154.99 ± 0.82	0.766 ± 0.009	1142.08 ± 0.78	0.677 ± 0.008	–	–	–	–	–	–	–	–	–
